Where two headings read alike, the source gives them in different places.
Key:
[1] = test system: formation of osteoclasts in co-culture of bone marrow cells and osteoblasts; experiment: Osteoclastogenesis inhibition via co-culture system (TRAP staining); format: cell-based, mice; conditions: 1 μM compound, 7 days co-culture, TRAP-positive multinucleated osteoclasts vs vehicle control; for inhibition at 1 µM: Mus musculus, Osteoclast, 168 h
Procedure: Osteoclastogenesis inhibitory effects of the compounds of the present invention were evaluated via a co-culture system (Reference: Endocrinology 137(1996), 2187 to 2190, E. Jimi et al.). A specific experimental method is as follows.
1) Preparation of Bone Marrow Cells and Osteoblasts
Femora and tibia were aseptically dissected from 6 to 8-week-old male ddY mice to harvest bone marrow cells by a conventional method using a syringe. In brief, tissues were removed from the dissected bone, the bone ends were cut off with scissors, and the bone marrow was isolated by pushing a medium-containing syringe (23G) against the one end of the cut bone. The isolated bone marrow was subjected to repeated piston movement of a syringe such that single cells were obtained (Reference: Endocrinology 123(1988), 2600 to 2602, Takahashi et al.). After removal of red blood cells within the bone marrow, the bone marrow cells recovered by centrifugation were placed in an α-MEM supplemented with 10% fetal bovine serum (FBS), followed by counting of nucleated cells and then were immediately used for a co-culture system.
2) Osteoclastogenesis Inhibition Experiment Via Co-Culture System
As the medium used for a co-culture system, a differentiation medium with the addition of differentiation factors 1α,25-dihydroxyvitamin D3 (10^−8M) and dexamethasone (10^−8M) to a-MEM supplemented with 10% FBS was used for the induction of osteoclastogenesis. First, the compounds dissolved in dimethyl sulfoxide (DMSO) at a concentration of 1 mM were diluted to 2 μM using the above-mentioned differentiation medium. As a vehicle control group, 0.2% (v/v) DMSO was added to the medium. 100 μL/well of each medium was added to 96-well plates. In addition, the above prepared bone marrow cells and osteoblasts were plated onto 96-well plates at a density of 1×10^5 cells/50 μL/well and 3×10^3 cells/50 μL/well, respectively. The total volume/well was 200 μL and the final compound concentration was 1 μM. The control group was 0.1% DMSO. The cells were cultured with exchange of the culture media with fresh media containing differentiation factors and test materials at an interval of 2 to 3 days.
7 days after culturing of cells, the formation of multinucleated osteoclasts was confirmed by microscopic examination, the medium was removed from the wells and then the cells were fixed in a 10% phosphate-buffered formalin solution. The degree of formation of mature osteoclasts was measured taking advantage of the characteristics of osteoclasts showing a positive reaction to a tartrate-resistant acid phosphatase (TRAP) staining solution. The TRAP staining solution was prepared in a manner such that naphthol AS-MS phosphate as a substrate and a coloring agent (Fast Red Violet LB salt) were dissolved in N,N-dimethylformamide, and a 0.1N NaHCO3 buffer solution containing 50 mM of tartaric acid was added thereto. Among the TRAP-positive cells under a light microscope, multinucleated osteoclasts having 6 to 7 nuclei were regarded as mature osteoclasts.
The degree of inhibition of osteoclastogenesis was calculated according to the following equation 1. The results are summarized in Table 27 below (Experiments were carried out for 4 wells/experimental group (n=4), and the results are given in terms of mean±standard deviation)
Inhibition of osteoclastogenesis(%)=(1−numbers of osteoclasts observed in experimental group/numbers of osteoclasts observed in vehicle control group)×100(%) [Equation 1]

[2] = test system: Osteoblasts (Calvarial cells); conditions: ICR, mouse, 72 h, 1 μM
[3] = test system: Osteoblasts (Calvarial cells); experiment: Cytotoxicity test (MTT); conditions: 1 μM compound, 72 hours, in comparison with vehicle control

Row | SMILES | inhibition at 1 µM [1] [%] | Cell viability (%) Calvarial cell [2] [%] | Osteoclastogenesis inhibition (%) 1 μM [1] [%] | Cell viability (%) Calvarial cell [3] [%]
1 | Cc1ccc(Nc2nc(-n3ccnc3C(C)C)ccc2[N+](=O)[O-])cc1 [Compound 7, 2-(4-methylphenylamino)-6-[(2-isopropyl)imidazol-1-yl]-3-nitropyridine] | 100 | 103 |  | 
2 | Cc1ccc(Nc2nc(NCCc3cccnc3)ccc2[N+](=O)[O-])cc1 [Compound 10, 2-(4-methylphenylamino)-6-[2-(3-pyridyl)ethylamino]-3-nitropyridine] | 64 | 116 |  | 
3 | Cc1ccc(Nc2nc(N3CCNCC3)ccc2[N+](=O)[O-])cc1 [Compound 12, 2-(4-methylphenylamino)-6-(piperazin-1-yl)-3-nitropyridine] | 63 | 103 |  | 
4 | COc1ccc(Nc2nc(N3CCC(N)CC3)ccc2[N+](=O)[O-])cc1 [Compound 28, 2-(4-methoxyphenylamino)-6-(4-aminopiperidino)-3-nitropyridine] | 88 | 89 |  | 
5 | CC(C)(C)c1ccc(Nc2nc(N3CCNCC3)ccc2[N+](=O)[O-])cc1 [Compound 42, 2-[4-(t-butyl)phenylamino]-6-(piperazin-1-yl)-3-nitropyridine] | 96 | 103 |  | 
6 | CSc1ccc(Nc2nc(NCCCn3ccnc3)ccc2[N+](=O)[O-])cc1 [Compound 55, 2-[4-(methylsulfanyl)phenylamino]-6-[(3-imidazol-1-yl)propylamino]-3-nitropyridine] | 98 | 105 |  | 
7 | CCCCc1ccc(Nc2nc(NCCCn3ccnc3)ccc2[N+](=O)[O-])cc1 [Compound 56, 2-[4-(n-butyl)phenylamino]-6-[(3-imidazol-1-yl)propylamino]-3-nitropyridine] | 99 | 104 |  | 
8 | Nc1ccc(Nc2nc(N3CCOCC3)ccc2[N+](=O)[O-])cc1 [Compound 64, 2-[4-(amino)phenylamino]-6-morpholino-3-nitropyridine] | 65 | 102 |  | 
9 | Nc1ccc(Nc2nc(NCc3ccncc3)ccc2[N+](=O)[O-])cc1 [Compound 66, 2-[4-(amino)phenylamino]-6-[(4-pyridyl)methylamino]-3-nitropyridine] | 65 | 107 |  | 
10 | CC(C)c1nccn1-c1ccc([N+](=O)[O-])c(Nc2ccc(-n3ccnc3)cc2)n1 [Compound 92, 2-[4-(imidazol-1-yl)phenylamino]-6-[(2-isopropyl)imidazol-1-yl]-3-nitropyridine] | 64 | 101 |  | 
11 | O=[N+]([O-])c1ccc(NCc2cccnc2)nc1Nc1ccc(-n2ccnc2)cc1 [Compound 93, 2-[4-(imidazol-1-yl)phenylamino]-6-[(3-pyridyl)methylamino]-3-nitropyridine] | 66 | 98 |  | 
12 | Cc1nc(-c2ccc(Nc3nc(NCC(C)C)ccc3[N+](=O)[O-])cc2)cs1 [Compound 134, 2-[4-(2-methylthiazol-4-yl)phenylamino]-6-(isobutylamino)-3-nitropyridine] | 61 | 93 |  | 
13 | Cc1nc(-c2ccc(Nc3nc(N4CCNCC4)ccc3[N+](=O)[O-])cc2)cs1 [Compound 143, 2-[4-(2-methylthiazol-4-yl)phenylamino]-6-(piperazin-1-yl)-3-nitropyridine] | 99 | 85 |  | 
14 | Cc1nc(-c2ccc(Nc3nc(N4CCC(N)CC4)ccc3[N+](=O)[O-])cc2)cs1 [Compound 144, 2-[4-(2-methylthiazol-4-yl)phenylamino]-6-(4-aminopiperidino)-3-nitropyridine] | 100 | 35 |  | 
15 | CNc1ccc([N+](=O)[O-])c(Nc2ccc(-c3csc(C4CCCCC4)n3)cc2)n1 [Compound 151, 2-[4-(2-cyclohexylthiazol-4-yl)phenylamino]-6-(methylamino)-3-nitropyridine] | 70 | 101 |  | 
16 | CC(C)Nc1ccc([N+](=O)[O-])c(Nc2ccc(-c3csc(C4CCCCC4)n3)cc2)n1 [Compound 152, 2-[4-(2-cyclohexylthiazol-4-yl)phenylamino]-6-(isopropylamino)-3-nitropyridine] | 85 | 105 |  | 
17 | CC(C)CNc1ccc([N+](=O)[O-])c(Nc2ccc(-c3csc(C4CCCCC4)n3)cc2)n1 [Compound 153, 2-[4-(2-cyclohexylthiazol-4-yl)phenylamino]-6-(isobutylamino)-3-nitropyridine] | 78 | 107 |  | 
18 | CC(C)(C)Nc1ccc([N+](=O)[O-])c(Nc2ccc(-c3csc(C4CCCCC4)n3)cc2)n1 [Compound 154, 2-[4-(2-cyclohexylthiazol-4-yl)phenylamino]-6-(t-butylamino)-3-nitropyridine] | 78 | 116 |  | 
19 | O=[N+]([O-])c1ccc(N2CCC(O)CC2)nc1Nc1ccc(N2CCCCC2)c(F)c1 [Compound 226, 2-[(3-fluoro-4-piperidino)phenylamino]-6-(4-hydroxypiperidino)-3-nitropyridine] |  |  | 66 | 104
20 | CC(C)c1nccn1-c1ccc([N+](=O)[O-])c(Nc2ccc(N3CCCCC3)c(F)c2)n1 [Compound 228, 2-[(3-fluoro-4-piperidino)phenylamino]-6-[(2-isopropyl)imidazol-1-yl]-3-nitropyridine] |  |  | 73 | 99
21 | CN1CCN(c2ccc([N+](=O)[O-])c(Nc3ccc(N4CCCCC4)c(F)c3)n2)CC1 [Compound 232, 2-[(3-fluoro-4-piperidino)phenylamino]-6-(4-methylpiperazin-1-yl)-3-nitropyridine] |  |  | 86 | 100
22 | O=[N+]([O-])c1ccc(N2CCNCC2)nc1Nc1ccc(N2CCCCC2)c(F)c1 [Compound 233, 2-[(3-fluoro-4-piperidino)phenylamino]-6-(piperazin-1-yl)-3-nitropyridine] |  |  | 96 | 102
23 | NC1CCN(c2ccc([N+](=O)[O-])c(Nc3ccc(N4CCCCC4)c(F)c3)n2)CC1 [Compound 234, 2-[(3-fluoro-4-piperidino)phenylamino]-6-(4-aminopiperidino)-3-nitropyridine] |  |  | 100 | 94
24 | CC(C)CNc1ccc([N+](=O)[O-])c(Nc2ccc(N3CCC(O)CC3)c(F)c2)n1 [Compound 238, 2-{[3-fluoro-4-(4-hydroxypiperidino)]phenylamino}-6-(isobutylamino)-3-nitropyridine] |  |  | 75 | 106
25 | O=[N+]([O-])c1ccc(NCc2cccnc2)nc1Nc1ccc(N2CCC(O)CC2)c(F)c1 [Compound 241, 2-{[3-fluoro-4-(4-hydroxypiperidino)]phenylamino}-6-[(3-pyridyl)methylamino]-3-nitropyridine] |  |  | 87 | 100
26 | O=[N+]([O-])c1ccc(NCc2ccncc2)nc1Nc1ccc(N2CCC(O)CC2)c(F)c1 [Compound 242, 2-{[3-fluoro-4-(4-hydroxypiperidino)]phenylamino}-6-[(4-pyridyl)methylamino]-3-nitropyridine] |  |  | 93 | 114
27 | NC1CCN(c2ccc([N+](=O)[O-])c(Nc3ccc(N4CCC(O)CC4)c(F)c3)n2)CC1 [Compound 246, 2-{[3-fluoro-4-(4-hydroxypiperidino)]phenylamino}-6-(4-aminopiperidino)-3-nitropyridine] |  |  | 80 | 105
